In patent US9212204B2, “Treatment of rett syndrome using glycyl-L-2-methylprolyl-L-glutamic acid” (priority 2011, dated 2015):
Where two headings read alike, the source gives them in different places. Non-standard residues stand in square brackets, D forms with d. Residues, ends and D or L forms follow the SMILES beside them. αMeP = C[C@@]1(C(=O)O)CCCN1

Assays:
[1] = tested on: layer 5 pyramidal neurons in motor cortex of P28 knockout mice; assay: Golgi staining, cortical spine density; format: in vivo, mouse; details: knockout with treatment
Description: Samples (<1 cm) from P28 mice are fixed in 10% formalin and 3% potassium bichromate for 24 hours. Tissue is then transferred into 2% silver nitrate for 2 days in the dark at room temperature. Sections from these samples are then cut at 50 μm thickness into distilled water. Sections corresponding to motor cortex are mounted onto slides, air dried for 10 minutes, and then dehydrated through sequential rinses of 95% alcohol, 100% alcohol, and xylene, and then sealed with a coverslip. Images re acquired at 10× (whole cell) and 100× (spine imaging) using a Zeiss Pascal 5 Exciter confocal microscope.
We use Golgi staining to label neurons sparsely and distinctly, and applied high-resolution confocal imaging to measure dendritic spine density and morphology in the labelled cells, restricting analysis to layer 5 pyramidal neurons in sections of motor cortex from critical period mice (P28).
While low-magnification imaging clearly delineates the extent of the dendrites of the pyramidal cells we use higher magnifications to count synaptic contacts and determine the morphological class of each spine. We classify spines as either large and bulbous (“mushroom”, M), short and stubby (“stubby”, S), short and thin (“thin”, T) or filopodia (F).

[2] = tested on: hemizygous MeCP2(1lox) male mice; format: in vivo; details: for time to 50 percent death: 20 mg/kg/day i.p.
Text: To determine whether G-2-MePE treatment can impact the development and progression of Rett Syndrome in a murine model of the disorder, we used hemizygous MeCP2(1lox) male mice. The MeCP2 knock-out (MeCP2-KO) mouse system is widely accepted in the art as closely mimicking the range and the severity of physiological and neurological abnormalities characteristic of the human disorder, Rett Syndrome.

[3] = tested on: subjects with Rett Syndrome; assay: Placebo controlled study in subjects with Rett Syndrome; format: in vivo, human
Text: Thirty subjects with Rett Syndrome are recruited, Subjects are female and aged between […] (Mean=12.1 SD=4.4). All subjects have an IQ<60 and mutations of the MECP2 gene. Subjects also show ether spike activity in the EEG or an increase in lower frequency bands of the BEG as detected by Fast Fourier Transform (FFT). Subjects are instructed that concomitant medications are to be stable for at least six weeks prior to study. Subjects receiving medication to treat signs of inattention are tested in the morning and instructed to take their medication in the afternoon. Subjects with QTc interval >451 msec are excluded.
The study is a randomized double blind placebo controlled parallel study with three doses of either placebo, 10 mg/kg T.I.D oral G-2-MePE for five days, or 30 mg/kg T.I.D. oral G-2-MePE.
Subjects are tested at baseline using the following instruments: The Rett Syndrome Natural History/Clinical Severity Scale, Aberrant Behavior Checklist Community Edition (ABC), Vinelands, Clinical Global Impression of Severity (CGI-S) and their carers completed the Caregiver Strain Questionnaire (CSQ).
Subjects are brought into clinic on an inpatient basis to enable initial baseline recordings of EEG, ECG and respiratory rate continuously for 24 hours using polysomnography technology. Hand movements are also recorded using the Q-Sensor™. Derived EEG measures include: spikes per unit time in the EEG, overall power of frequency bands of the EEG, QTc and heart rate variability (HRV), and respiratory irregularities.
Adverse events are also recorded using standard safety measures and the SMURF elicitation of adverse events
(§1) Statistically, the effect of treatment with G-2-MePE is analysed by conducting a repeated analysis of covariance (ANCOVA) on the effect of treatment on change from baseline scores.

[4] = tested on: subjects with an Autism Spectrum Disorder; assay: Placebo-controlled crossover study in subjects with an Autism Spectrum Disorder; format: in vivo, human
Text: To determine whether G-2-MePE can treat symptoms of ASD, we carry out a study in human beings with ASD. Twenty subjects with an Autism Spectrum Disorder are recruited. Subjects are male and aged between 16 and 65 years (Mean=18.1 SD=3.4). All subjects have an IQ >60 and strict DSM-IV-TR diagnosis of Autistic Disorder or Asperger Disorder, Subjects also meet criteria for an Autism Spectrum Disorder according the ADI-R and ADOS-G instruments, and fulfill the proposed DSM-V criteria for and Autism Spectrum Disorder. Subjects are instructed that concomitant medications are to be stable for at least six weeks prior to study. Subjects receiving medication to treat signs of inattention are tested in the morning and instructed to take their medication in the afternoon. Subjects better treated with atypical anti-psychotic medications indicated for autism are excluded. Subjects are screened for known genetic disorders including and those with Fragile X Syndrome or tuberous sclerosis excluded. Subjects with uncontrolled epilepsy are excluded.
The study is a double blind placebo-controlled crossover study with three phases. Subjects enter each phase of the crossover in a randomized order. In the test phases, subjects receive either placebo, 10 mg/kg T.I.D oral G-2-MePE for five days, or 30 mg/kg T.I.D. oral G-2-MePE. Each phase of the crossover is separated by a washout period of fourteen days.
Subjects are tested at baseline using the following instruments: Wechsler IQ, Abberant Behavior Checklist Community Edition (ABC), Vinelands, Yale-Brown Obsessive Compulsive Scale (YBOCS) compulsion subscale, Social Responsiveness Scale (SRS), Clinical Global Impression of Severity (CGI-S) and their carers complete the Caregiver Strain Questionnaire (CSQ).
Subjects are administered two tasks—the Reading the Mind in the Eyes Test—Revised (RMET) and an Eye Tracking (ET) task, as well as Clinical Global Impression of Improvement (CGI-1). Tasks commence two hours following administration of placebo or either dose of G-2-MePE. The RMET is a computer based task that assesses one's ability to read emotions from the eyes of subtle affective facial expressions and is a widely used test of emotion recognition in patients with autism (2001). Importantly, the RMET is capable of detecting improvement with even a single dose of a pharmacological agent (Guastella et al., 2010). Eye tracking issues are characteristic of patients with autism who spend less time looking at the eyes of photographs of human faces. Again, a single administration of a pharmacologic intervention can ameliorate eye tracking deficits in autism (Andari et al, 2010).
Adverse events are also recorded using standard safety measures.
as §1

[5] = 30 mg/kg T.I.D. oral, compared to placebo
[6] = 10 or 30 mg/kg T.I.D. oral, vs placebo

## C[C@@]1(C(=O)N[C@@H](CCC(=O)O)C(=O)O)CCCN1C(=O)CN [Example G-2-MePE, Glycyl-L-2-methylprolyl-L-glutamic acid] (H-Gly-[αMeP]-Glu-OH)
[1]
  density of spines per unit branch: largely ameliorated
[2]; data initially presented
  time to 50 percent death: 16 weeks
[2]; re-examination with control group re-run
  time to 50 percent death: 16 weeks
[2]; mouse, in vivo
  safety in mecp2 mice: No safety concerns
[3]; [5]
  power of the delta band of the EEG: decreases
  spike activity: decreases
  subscales Nonverbal Communication, Epilepsy/Seizures, Hand use: significant effects
[3]; 10 or 30 mg/kg T.I.D. oral
  Serious Adverse Events: No Serious Adverse Events
  heart rate variability: No effects
  increases in QTC: No instances of increases
  respiratory rate: No effects
[3]; [6]
  adverse events: no more adverse events than are present during treatment with placebo
[3]; Rett Syndrome population
  tolerability: well tolerated
[3]; overall
  Rett Syndrome Natural History/Clinical Severity Score: no significant effect overall
[3]; overall treatment effect
  spikes per unit time in the EEG: significant overall reduction
[3]; significant for the 30 mg/kg T.I.D. dose compared to placebo
  total hand movements per twenty-four hour period (Q-Sensor): reduces
[4]; 30 mg/kg T.I.D. oral
  percent correct responses on the RMET: increases
[4]; 10 or 30 mg/kg T.I.D. oral
  Serious Adverse Events: No Serious Adverse Events
[4]; [6]
  adverse events: no more adverse events than were present during treatment with placebo
[4]; ASD population
  tolerability: well tolerated
[4]; overall treatment effect
  performance of the RMET test: significant overall improvement
  time spent looking at the eye region in the ET test: significant overall improvement
